Holding throughout (type): in vivo, Sprague-Dawley rats
The test system of series [1] is Normal rats with Dry Eye. The series can be described thus: Schirmer test of tear production in Normal rats with dry eye or "wet" eye. As for the experimental part: FIG. 7. Tear production of Normal rats with Dry Eye (upper panel) and “Wet” eye (lower panel). Animals were measured at baseline, and given 1 drop of topical 10^−6 M naltrexone hydrochloride (NTX). The horizontal black line represents mean baseline for comparisons. Data are expressed as mean (SEM) for 7 rats per group at each time point except 48 hr wherein n=3 rats.
Tear secretion was measured with Schirmer strips (Alcon Laboratories, Inc., Ft. Worth Tex.). A standard 17 mm long Schirmer strip was inserted into the lower cul-de-sac for 1 min. The strip wetting length was measured to the nearest millimeter. Five minutes prior to administration of the Schirmer strip, animals received topical Proparacaine Hydrochloride Ophthalmic Solution 0.5% (Akorn, Inc., Buffalo Grove, Ill.). Testing began 1 hour after the last drop of NTX or vehicle was administered, and continued every 24 hours thereafter.
Sprague-Dawley rats, males of 15-22 weeks of age, were tested for dry eye and therapeutic effects of opioid antagonists. […] All of these measures used a test called the Schirmer Test, as described in Example 1 (the same test used for humans).

In series [2] the test system is ocular surface. In words: Slit-lamp observations of the ocular surface. The conditions noted are these: during and after NTX administration. As for the experimental part:
To examine general overall morphology and pathology (e.g., corneal edema, scarring), observations with a hand-held slit lamp (Zeiss HSO 10 Hand Slit Lamp, Dublin, Calif.) were conducted.

Series [3] deals with DB rats. In words: Corneal sensitivity by aesthesiometer in STZ-diabetic (DB) rats after topical treatment. The note with it: for reduction in corneal sensitivity from Normal animals: DB NTX group. As for the experimental part: (§1) Male Sprague-Dawley rats (˜245 g) were obtained from Charles River Laboratories (Wilmington, Mass.) and housed under standard laboratory conditions. All investigations conformed to the regulations of the ARVO, National Institutes of Health, and the guidelines of the Department of Comparative Medicine of The Pennsylvania State University.
(§2) Briefly, an intraperitoneal (i.p.) injection of 40 mg/kg streptozotocin (STZ, Sigma, St. Louis, Mo.) in ice-cold 0.5 mol/l citrate buffer (pH 4.5) was administered. […] Fifteen animals not receiving STZ, but injected with citrate buffer, were considered Normal.
Corneal sensitivity was determined by an aesthesiometer (Cachet and Bonnet-Aesthesiometer, Boca Raton, Fla.). The values (g/mm^2) were determined directly from the protocol (and conversion table) supplied by the manufacturer.
Measurements of sensitivity were conducted prior to the Schirmer test.
(§3) Naltrexone hydrochloride (Sigma-Aldrich, Indianapolis, Ind.) was prepared in Vigamox (moxifloxacin hydrochloride ophthalmic solution, Alcon, Inc, Ft. Worth, Tex.) at a 10^−5 M concentration. NTX was given as a single drop (0.05 ml) to the central cornea of the right eye, with the lower eyelid held away from the eye to avoid overflow.
(§4) Insulin or vehicle was applied topically at 0800 hours.
(§5) For body weights and glucose measurements, Student two-tailed t-tests were utilized. With Schirmer tests and aesthesiometer measurements, one-way analysis of variance with Newman-Keuls post tests was employed because measurements were conducted on a random sample of two-thirds of the rats in each group.

Series [4] deals with DB rats. The series can be described thus: Schirmer test of tear production in STZ-diabetic (DB) rats after topical treatment. As for the experimental part: as §1, §2
Tear secretion was measured with Schirmer strips (Alcon Laboratories, Inc., Ft. Worth Tex.). […] The strip wetting length was measured to the nearest millimeter. Five minutes prior to administration of the Schirmer strip, animals received topical Proparacaine Hydrochloride Ophthalmic Solution 0.5% (Akorn, Inc., Buffalo Grove, Ill.).
as §3, §4, §5

Setting [5] is: Normal rats with dry eye, one drop of NTX 10^−6 M.

This note sets out measurements from patent publication US8314118B2, “Methods and compositions for treating dry eye” (priority 2009, dated 2012).

Bounds are passed on as bounds.

With `O=C1CC[C@@]2(O)[C@H]3Cc4ccc(O)c5c4[C@@]2(CCN3CC2CC2)[C@H]1O5` [NTX, 17-(cyclopropylmethyl)-4,5α-epoxy-3,14-dihydroxymorphinan-6-one], the “change in moisture of animals with "wet" eye” value in series [1] (Normal rats with "wet" eye, one drop of NTX) is on record as “no change in moisture”. The “persistence of "wet" eye” value in series [1] (setting [5]) is “maintained at 24 and 48 hr”. Besides, the “time of return to dry eye” value in series [1] (setting [5]) is not above 72 h. In series [1] (Normal rats with dry eye, one drop of NTX 10^−6 M in VIGAMOX), the “time to reversal of dry eye” value is listed as “within an hour”. In addition, the “duration of therapeutic effect” value in series [1] (one to two drops (10^−6 M)) is 48 h; in series [4] (four drops (10^−6 M) over a twelve-hour period) it was “at least 72 hours”. Also, in series [1] (one to two drops (10^−6 M)), the “time to reversal of dry eye conditions” value is “within an hour or so”. In addition, the “abnormalities of the ocular surface on slit-lamp examination” value in series [2] is listed as “did not reveal any abnormalities”. For the same compound, the “reduction in corneal sensitivity from Normal animals” value in series [3] (120 hours after termination of 1 day of NTX q.i.d.) is listed as 1.8 fold; in series [3] (192 hours after termination of 5 day NTX q.i.d.) it was 1.9 fold; in series [3] (216 hours after termination of 5 day NTX q.i.d.) it was 1.7 fold. The “time for which corneal sensitivity stayed comparable to Normal” value in series [3] (DB rats, 1 drop of NTX, entire period of the experiment) is 96 h. Also, the “time to restoration of corneal sensitivity” value in series [3] (DB rats, 1 drop of topical NTX) was not above 1 h. In addition, the “time for which corneal sensitivity scores were comparable to Normal rats” value in series [3] (DB rats, NTX q.i.d. for 1 or 5 days, from 1 h after termination of drug exposure) is listed as “at least 4 days”. Moreover, the “reduction of tear production from Normal animals” value in series [4] (DB NTX group, 96 hours after termination of 1 or 5 days of NTX q.i.d.) is listed as 22-59%. The “time to restoration of tear secretion” value in series [4] (DB rats, 1 drop of topical NTX 10^−5 M in Vigamox) was not above 1 h. For the same compound, the “time for which Schirmer scores were comparable to Normal rats” value in series [4] (DB rats, NTX q.i.d. for 1 or 5 days, from 1 hour after termination of drug exposure) is listed as “at least 3 days”. For the same compound, the “time for which tear production was similar to Normal animals” value in series [4] (DB rats, after 1 drop of NTX) is given as “at least 48 hours”. For the same compound, the “duration of effect on dry eye” value in series [4] (only one daily topical application) was “more than 2 days”.
In the case of “INS: Bovine insulin (Sigma-Aldrich) prepared in Vigamox, utilized at a concentration of 1 U”, the “corneal sensitivity compared with Normal animals” value in series [3] (DB rats, 1 drop of topical INS, 1, 24 and 48 h) is “did not differ from the Normal animals”. The “decrease of Schirmer score from Normal rats” value in series [4] (DB INS group, at 1, 24 and 48 hour time points) is listed as 35-58%. For the same compound, in series [4] (DB rats, 1 drop of topical INS (1 U)), the “effect on tear production” value is given as “no effect”.
